Experimental data published in US20220062243A1, “P14-Kinase Inhibitors with Anti-Cancer Activity” (The Board of Trustees of the Leland Stanford Junior …, priority 2019, published 2022).

Molecular target: PI4K-IIIβ (Homo sapiens, UniProt Q9UBF8)
Experiment: PI-kinase assay (membrane capture assay for lipid kinase activity), PI4KIIIβ
Type: biochemical
Details: read-out: PI4KIIIβ kinase activity (IC50 class)
Description: PI4-kinase inhibition can be determined by a kinase activity assay, e.g., by an assay that determines the level of incorporation of radiolabeled phosphate from [γ-^32P]-ATP into a substrate molecule after treatment with a subject compound, relative to a control, by measuring the beta-particle emission rate using a scintillation counter or phosphorimaging.
PI-kinase assay: Compounds are tested in C.1.1. PI kinase assays as described by Shokat et al., “A membrane capture assay for lipid kinase activity.” Nat. Protoc. […] Selected compounds of Table 1 and 2 were prepared and tested for inhibition activity in a variety of kinase assays.

Chain of PI4K-IIIβ (Q9UBF8 whole entry): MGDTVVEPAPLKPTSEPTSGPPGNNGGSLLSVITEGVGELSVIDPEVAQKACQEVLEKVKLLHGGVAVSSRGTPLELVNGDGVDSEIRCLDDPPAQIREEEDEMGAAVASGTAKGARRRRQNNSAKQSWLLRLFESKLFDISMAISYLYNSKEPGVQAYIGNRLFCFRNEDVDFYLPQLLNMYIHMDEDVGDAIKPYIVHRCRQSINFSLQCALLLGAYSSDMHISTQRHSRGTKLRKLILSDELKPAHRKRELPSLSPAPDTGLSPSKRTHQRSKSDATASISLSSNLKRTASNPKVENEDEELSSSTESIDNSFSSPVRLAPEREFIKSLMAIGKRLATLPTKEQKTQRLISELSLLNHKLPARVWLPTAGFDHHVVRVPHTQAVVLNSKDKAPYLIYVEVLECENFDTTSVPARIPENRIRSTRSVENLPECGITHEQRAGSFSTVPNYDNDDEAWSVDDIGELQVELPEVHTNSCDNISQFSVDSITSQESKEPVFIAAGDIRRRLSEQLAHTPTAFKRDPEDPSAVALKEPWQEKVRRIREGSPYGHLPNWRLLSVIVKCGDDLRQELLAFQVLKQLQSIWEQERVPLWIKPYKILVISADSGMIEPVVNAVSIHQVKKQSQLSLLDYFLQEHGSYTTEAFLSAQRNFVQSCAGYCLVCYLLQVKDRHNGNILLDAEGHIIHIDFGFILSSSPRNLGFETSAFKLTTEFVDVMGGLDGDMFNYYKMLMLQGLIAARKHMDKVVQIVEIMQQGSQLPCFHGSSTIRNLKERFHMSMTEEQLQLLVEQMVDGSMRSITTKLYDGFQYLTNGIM

IC50, 1000 to 10000 nM:
COc1ccc(-c2sc(N[C@@H](C)C3CCCCC3)nc2C)cc1S(=O)(=O)N[C@H]1CC[C@@H](O)CC1 [Compound S-206, 5-[2-[[(1S)-1-cyclohexylethyl]amino]-4-methyl-thiazol-5-yl]-N-(4-hydroxycyclohexyl)-2-methoxy-benzenesulfonamide]

IC50, 100 to 1000 nM:
COc1ccc(-c2sc(NCCC3CCCCC3)nc2C)cc1S(=O)(=O)NC1CCC(O)C1 (centres unmarked) [Compound S-214, 5-[2-(2-cyclohexylethylamino)-4-methyl-thiazol-5-yl]-N-(3-hydroxycyclopentyl)-2-methoxy-benzenesulfonamide]
COc1ccc(-c2sc(NC3CCCCC3)nc2C)cc1S(=O)(=O)NC1CCCCCC1 [Compound S-131, N-cycloheptyl-5-[2-(cyclohexylamino)-4-methyl-thiazol-5-yl]-2-methoxy-benzenesulfonamide]

IC50, < 100 nM:
COc1ccc(-c2sc(N[C@H](C)C3CCCCC3)nc2C)cc1S(=O)(=O)NC1CCCNC1 (stereo partly drawn) [Compound S-148, 5-[2-[[(1R)-1-cyclohexylethyl]amino]-4-methyl-thiazol-5-yl]-2-methoxy-N-(3-piperidyl)benzenesulfonamide]
COc1ccc(-c2sc(NCC3CCCCC3)nc2C)cc1S(=O)(=O)NC1CCN(C2CCCC2)CC1 [Compound S-133, 5-[2-(cyclohexylmethylamino)-4-methyl-thiazol-5-yl]-N-(1-cyclopentyl-4-piperidyl)-2-methoxy-benzenesulfonamide]
Cc1ccc(-c2sc(NC(=O)CC3CCCC3)nc2C)cc1S(=O)(=O)NC1CCNCC1 [Compound S-188, 2-cyclopentyl-N-[4-methyl-5-[4-methyl-3-(4-piperidylsulfamoyl)phenyl]thiazol-2-yl]acetamide]
COc1ncc(-c2sc(NC(=O)CC3CCOCC3)nc2C)cc1S(=O)(=O)Nc1ccc(O)cc1 [Compound S-261]
COc1ccc(-c2sc(NC(=O)CCC3CCCC3)nc2C)cc1S(=O)(=O)NC1CCNCC1 [Compound S-160, 3-cyclopentyl-N-[5-[4-methoxy-3-(4piperidylsulfamoyl)phenyl]-4-methyl-thiazol-2-yl]propanamide]
COc1ccc(-c2sc(NC(=O)C3CCCC3)nc2C)cc1S(=O)(=O)N[C@H]1CC[C@H](O)CC1 [Compound S-9, N-[5-[3-[(4-hydroxycyclohexyl)sulfamoyl]-4-methoxy-phenyl]-4-methyl-thiazol-2-yl]cyclopentanecarboxamide]
COc1ccc(-c2sc(NC(=O)Cc3ccccc3)nc2C)cc1S(=O)(=O)Nc1ccc(O)cc1 [Compound S-49, N-[5-[3-[(4-hydroxyphenyl)sulfamoyl]-4-methoxy-phenyl]-4-methyl-thiazol-2-yl]-2-phenyl-acetamide]
COc1ccc(-c2sc(NC(C)(C)C)nc2C)cc1S(=O)(=O)NC1CCCC(O)C1 (centres unmarked) [Compound S-218, 5-[2-(tert-butylamino)-4-methyl-thiazol-5-yl]-N-(3-hydroxycyclohexyl)-2-methoxy-benzenesulfonamide]
COc1ccc(-c2sc(NC(=O)CC3CCOCC3)nc2C)cc1S(=O)(=O)Nc1ccc(O)cc1 [Compound S-227, N-[5-[3-[(4-hydroxyphenyl)sulfamoyl]-4-methoxy-phenyl]-4-methyl-thiazol-2-yl]-2-tetrahydropyran-4-yl-acetamide]
COc1ccc(-c2sc(NC(C)(C)C)nc2C)cc1S(=O)(=O)NC1CCCNC1 (centres unmarked) [Compound S-220, 5-[2-(tert-butylamino)-4-methyl-thiazol-5-yl]-2-methoxy-N-(3-piperidyl)benzenesulfonamide]
COc1ccc(-c2sc(NC(=O)CC3CCCC3)nc2C)cc1S(=O)(=O)NCCCCO [Compound S-152]
COc1ccc(-c2sc(N[C@H](C)CC3CCCCC3)nc2C)cc1S(=O)(=O)NC1CCNCC1 [Compound S-145, 5-[2-[[(1R)-2-cyclohexyl-1-methyl-ethyl]amino]-4-methyl-thiazol-5-yl]-2-methoxy-N-(4-piperidyl)benzenesulfonamide]
COc1ccc(-c2sc(NC(=O)CC3CCOCC3)nc2C)cc1S(=O)(=O)Nc1ccc(O)cc1C [Compound S-231, N-[5-[3-[(4-hydroxy-2-methyl-phenyl)sulfamoyl]-4-methoxy-phenyl]-4-methyl-thiazol-2-yl]-2-tetrahydropyran-4-yl-acetamide]
COc1ccc(-c2sc(N[C@H](C)C3CCCCC3)nc2C)cc1S(=O)(=O)N[C@H]1CCNC1 [Compound S-201, 5-[2-[[(1R)-1-cyclohexylethyl]amino]-4-methyl-thiazol-5-yl]-2-methoxy-N-[(3S)-pyrrolidin-3-yl]benzenesulfonamide]
COc1ncc(-c2sc(NC(=O)CC3CCOCC3)nc2C)cc1S(=O)(=O)N[C@H]1CC[C@@H](O)CC1 [Compound S-262]
COc1ccc(-c2sc(NC(=O)CC3CCCC3)nc2C)cc1S(=O)(=O)NC1CCCNC1 (centres unmarked) [Compound S-173, 2-cyclopentyl-N-[5-[4-methoxy-3-(3piperidylsulfamoyl)phenyl]-4-methyl-thiazol-2-yl]acetamide;2,2,2-trifluoroacetic acid]
COc1ccc(-c2sc(NC(=O)CC3CCCC3)nc2C)cc1S(=O)(=O)Nc1ccc(O)cc1 [Compound S-1, 2-cyclopentyl-N-[5-[3-[(4-hydroxyphenyl)sulfamoyl]-4-methoxy-phenyl]-4-methyl-thiazol-2-yl]acetamide]
COc1ccc(-c2sc(NCC3CCCCC3)nc2C)cc1S(=O)(=O)NC1CCNCC1 [Compound S-123, 5-[2-(cyclohexylmethylamino)-4-methyl-thiazol-5-yl]-2-methoxy-N-(4-piperidyl)benzenesulfonamide]
COc1ccc(-c2sc(N[C@H](C)C3CCCCC3)nc2C)cc1S(=O)(=O)NC1CCNCC1 [Compound S-147, 5-[2-[[(1R)-1-cyclohexylethyl]amino]-4-methyl-thiazol-5-yl]-2-methoxy-N-(4-piperidyl)benzenesulfonamide]

Molecular target: PI4KIIIα (Homo sapiens, UniProt P42356)
Sequence (P42356 whole entry): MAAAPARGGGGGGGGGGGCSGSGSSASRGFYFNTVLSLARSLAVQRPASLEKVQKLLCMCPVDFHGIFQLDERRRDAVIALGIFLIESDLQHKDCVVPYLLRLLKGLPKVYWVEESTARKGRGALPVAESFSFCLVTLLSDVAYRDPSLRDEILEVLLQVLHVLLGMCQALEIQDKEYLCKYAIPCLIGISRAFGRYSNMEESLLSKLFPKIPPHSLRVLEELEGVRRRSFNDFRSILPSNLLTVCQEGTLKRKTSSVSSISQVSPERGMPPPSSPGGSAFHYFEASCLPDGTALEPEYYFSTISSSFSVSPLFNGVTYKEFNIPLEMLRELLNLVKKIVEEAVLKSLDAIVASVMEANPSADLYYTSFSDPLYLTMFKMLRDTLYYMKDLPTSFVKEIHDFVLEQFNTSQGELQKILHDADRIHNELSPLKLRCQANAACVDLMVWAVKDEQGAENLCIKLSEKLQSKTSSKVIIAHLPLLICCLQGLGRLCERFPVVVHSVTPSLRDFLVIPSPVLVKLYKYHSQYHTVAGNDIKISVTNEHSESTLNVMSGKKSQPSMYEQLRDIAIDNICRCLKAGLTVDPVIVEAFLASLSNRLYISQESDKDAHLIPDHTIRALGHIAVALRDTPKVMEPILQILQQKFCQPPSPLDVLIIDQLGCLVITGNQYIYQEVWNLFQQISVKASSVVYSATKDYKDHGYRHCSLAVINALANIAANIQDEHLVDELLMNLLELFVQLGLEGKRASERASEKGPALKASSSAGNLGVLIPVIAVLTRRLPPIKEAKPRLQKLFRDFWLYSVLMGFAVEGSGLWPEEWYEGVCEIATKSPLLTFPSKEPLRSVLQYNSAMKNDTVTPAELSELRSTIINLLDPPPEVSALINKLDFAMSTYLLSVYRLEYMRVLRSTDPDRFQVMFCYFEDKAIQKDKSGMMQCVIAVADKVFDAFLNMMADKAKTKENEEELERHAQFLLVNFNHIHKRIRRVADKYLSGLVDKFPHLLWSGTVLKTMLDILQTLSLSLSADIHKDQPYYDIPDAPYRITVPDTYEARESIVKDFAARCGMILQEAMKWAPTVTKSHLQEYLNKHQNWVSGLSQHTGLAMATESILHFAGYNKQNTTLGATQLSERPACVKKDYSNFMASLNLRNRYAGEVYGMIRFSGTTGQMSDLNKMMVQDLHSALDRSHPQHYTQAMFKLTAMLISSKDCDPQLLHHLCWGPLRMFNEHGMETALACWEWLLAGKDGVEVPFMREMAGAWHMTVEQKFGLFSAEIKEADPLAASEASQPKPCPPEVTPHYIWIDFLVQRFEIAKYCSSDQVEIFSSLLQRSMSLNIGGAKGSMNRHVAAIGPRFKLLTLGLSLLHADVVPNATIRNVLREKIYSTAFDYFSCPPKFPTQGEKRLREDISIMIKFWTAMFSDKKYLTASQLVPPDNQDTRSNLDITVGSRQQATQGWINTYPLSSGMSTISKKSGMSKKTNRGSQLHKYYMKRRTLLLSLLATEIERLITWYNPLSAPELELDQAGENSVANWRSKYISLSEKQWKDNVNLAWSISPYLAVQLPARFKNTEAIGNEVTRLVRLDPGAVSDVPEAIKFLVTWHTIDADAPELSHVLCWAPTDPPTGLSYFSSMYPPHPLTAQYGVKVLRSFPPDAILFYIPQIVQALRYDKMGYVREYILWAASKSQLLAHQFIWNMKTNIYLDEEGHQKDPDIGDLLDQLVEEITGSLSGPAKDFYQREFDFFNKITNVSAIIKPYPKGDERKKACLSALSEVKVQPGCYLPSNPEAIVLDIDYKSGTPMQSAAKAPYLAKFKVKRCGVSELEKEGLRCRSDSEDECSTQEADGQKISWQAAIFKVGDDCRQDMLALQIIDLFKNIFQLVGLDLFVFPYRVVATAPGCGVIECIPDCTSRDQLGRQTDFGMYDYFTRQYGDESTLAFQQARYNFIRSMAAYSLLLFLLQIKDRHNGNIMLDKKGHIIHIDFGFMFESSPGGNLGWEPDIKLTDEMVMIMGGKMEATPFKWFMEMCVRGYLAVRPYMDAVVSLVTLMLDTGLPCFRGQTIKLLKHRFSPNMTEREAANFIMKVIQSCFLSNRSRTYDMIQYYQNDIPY
Experiment: not given
Details: weak inhibition; cited from earlier work

IC50, ~3000 nM:
COc1ccc(-c2sc(NC(=O)C(C)(C)C)nc2C)cc1S(=O)(=O)Nc1ccc(O)cc1 [PI4KIIIbeta-IN-10]
